Reference: PubChem BioAssay (NCI)
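Method: 48-hour compound exposure of cells in 96-well plates, five concentrations, linear interpolation of endpoints. The concentration for full growth arrest is given as TGI.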

Assays:
Test in all cases: inhibition of tumour cell growth, NCI panel, 48 h
IGROV1 ovarian = test system: IGROV1 ovarian
M19-MEL melanoma = test system: M19-MEL melanoma
SF-295 CNS = test system: SF-295 CNS
A498 renal = test system: A498 renal
ACHN renal = test system: ACHN renal
HCC-2998 colon = test system: HCC-2998 colon
HCT-15 colon = test system: HCT-15 colon
OVCAR-4 ovarian = test system: OVCAR-4 ovarian
OVCAR-8 ovarian = test system: OVCAR-8 ovarian
SF-539 CNS = test system: SF-539 CNS
SNB-75 CNS = test system: SNB-75 CNS
SN12C renal = test system: SN12C renal
SW-620 colon = test system: SW-620 colon
RXF-631 renal = test system: RXF-631 renal
SK-MEL-28 melanoma = test system: SK-MEL-28 melanoma
OVCAR-3 ovarian = test system: OVCAR-3 ovarian
LXFL 529 NSCLC = test system: LXFL 529 NSCLC
SNB-78 CNS = test system: SNB-78 CNS
SR leukemia = test system: SR leukemia
DLD-1 colon = test system: DLD-1 colon
UACC-62 melanoma = test system: UACC-62 melanoma
SK-MEL-5 melanoma = test system: SK-MEL-5 melanoma
TK-10 renal = test system: TK-10 renal
SK-OV-3 ovarian = test system: SK-OV-3 ovarian
COLO 205 colon = test system: COLO 205 colon
RXF 393 renal = test system: RXF 393 renal
M14 melanoma = test system: M14 melanoma
NCI-H23 lung = test system: NCI-H23 lung
LOX IMVI melanoma = test system: LOX IMVI melanoma
SF-268 CNS = test system: SF-268 CNS
DMS 114 small cell lung = test system: DMS 114 small cell lung
RPMI-8226 leukemia = test system: RPMI-8226 leukemia
K-562 leukemia = test system: K-562 leukemia
EKVX NSCLC = test system: EKVX NSCLC
NCI-H460 lung = test system: NCI-H460 lung
U251 CNS = test system: U251 CNS
CCRF-CEM leukemia = test system: CCRF-CEM leukemia
786-0 renal = test system: 786-0 renal
MOLT-4 leukemia = test system: MOLT-4 leukemia
MALME-3M melanoma = test system: MALME-3M melanoma
KM12 colon = test system: KM12 colon
A549 NSCLC = test system: A549 NSCLC
HT29 colon = test system: HT29 colon
DMS 273 small cell lung = test system: DMS 273 small cell lung
HL-60(TB) leukemia = test system: HL-60(TB) leukemia
SNB-19 CNS = test system: SNB-19 CNS
SK-MEL-2 melanoma = test system: SK-MEL-2 melanoma
UO-31 renal = test system: UO-31 renal
KM20L2 colon = test system: KM20L2 colon
NCI-H522 lung = test system: NCI-H522 lung
NCI-H226 lung = test system: NCI-H226 lung
XF 498 CNS = test system: XF 498 CNS
HOP-62 NSCLC = test system: HOP-62 NSCLC
UACC-257 melanoma = test system: UACC-257 melanoma
CAKI-1 renal = test system: CAKI-1 renal
HCT-116 colon = test system: HCT-116 colon
OVCAR-5 ovarian = test system: OVCAR-5 ovarian

SMILES: CC1CC2C(=O)N(c3ccccc3)C(=O)C2c2[nH]c3ccccc3c21 (stereo not drawn)
- TGI (IGROV1 ovarian): > 100 µM
- TGI (M19-MEL melanoma): > 100 µM
- TGI (SF-295 CNS): > 100 µM
- TGI (A498 renal): > 100 µM
- TGI (ACHN renal): > 100 µM
- TGI (HCC-2998 colon): > 100 µM
- TGI (HCT-15 colon): > 100 µM
- TGI (OVCAR-4 ovarian): > 100 µM
- TGI (OVCAR-8 ovarian): > 100 µM
- TGI (SF-539 CNS): > 100 µM
- TGI (SNB-75 CNS): 55.1 µM
- TGI (SN12C renal): > 100 µM
- TGI (SW-620 colon): > 100 µM
- TGI (RXF-631 renal): > 100 µM
- TGI (SK-MEL-28 melanoma): > 100 µM
- TGI (OVCAR-3 ovarian): > 100 µM
- TGI (LXFL 529 NSCLC): > 100 µM
- TGI (SNB-78 CNS): > 100 µM
- TGI (SR leukemia): > 100 µM
- TGI (DLD-1 colon): > 100 µM
- TGI (UACC-62 melanoma): > 100 µM
- TGI (SK-MEL-5 melanoma): > 100 µM
- TGI (TK-10 renal): > 100 µM
- TGI (SK-OV-3 ovarian): 36.7 µM
- TGI (COLO 205 colon): > 100 µM
- TGI (RXF 393 renal): > 100 µM
- TGI (M14 melanoma): > 100 µM
- TGI (NCI-H23 lung): > 100 µM
- TGI (LOX IMVI melanoma): > 100 µM
- TGI (SF-268 CNS): > 100 µM
- TGI (DMS 114 small cell lung): > 100 µM
- TGI (RPMI-8226 leukemia): > 100 µM
- TGI (K-562 leukemia): > 100 µM
- TGI (EKVX NSCLC): > 100 µM
- TGI (NCI-H460 lung): > 100 µM
- TGI (U251 CNS): > 100 µM
- TGI (CCRF-CEM leukemia): > 100 µM
- TGI (786-0 renal): > 100 µM
- TGI (MOLT-4 leukemia): > 100 µM
- TGI (MALME-3M melanoma): > 100 µM
- TGI (KM12 colon): > 100 µM
- TGI (A549 NSCLC): > 100 µM
- TGI (HT29 colon): > 100 µM
- TGI (DMS 273 small cell lung): > 100 µM
- TGI (HL-60(TB) leukemia): > 100 µM

SMILES: CN1C/C(=C\c2ccco2)c2nc(N)nc(-c3ccco3)c2C1
- TGI (IGROV1 ovarian): > 100 µM
- TGI (M19-MEL melanoma): > 100 µM
- TGI (SF-295 CNS): > 100 µM
- TGI (A498 renal): > 100 µM
- TGI (SNB-19 CNS): > 100 µM
- TGI (ACHN renal): > 100 µM
- TGI (HCC-2998 colon): > 100 µM
- TGI (SK-MEL-2 melanoma): > 100 µM
- TGI (HCT-15 colon): > 100 µM
- TGI (OVCAR-8 ovarian): > 100 µM
- TGI (SF-539 CNS): > 100 µM
- TGI (SNB-75 CNS): > 100 µM
- TGI (SN12C renal): > 100 µM
- TGI (SW-620 colon): > 100 µM
- TGI (SK-MEL-28 melanoma): > 100 µM
- TGI (UO-31 renal): > 100 µM
- TGI (OVCAR-3 ovarian): > 100 µM
- TGI (LXFL 529 NSCLC): > 100 µM
- TGI (KM20L2 colon): > 100 µM
- TGI (DLD-1 colon): > 100 µM
- TGI (UACC-62 melanoma): > 100 µM
- TGI (SK-MEL-5 melanoma): > 100 µM
- TGI (TK-10 renal): > 100 µM
- TGI (SK-OV-3 ovarian): > 100 µM
- TGI (COLO 205 colon): > 100 µM
- TGI (RXF 393 renal): > 100 µM
- TGI (M14 melanoma): > 100 µM
- TGI (NCI-H522 lung): > 100 µM
- TGI (NCI-H23 lung): > 100 µM
- TGI (LOX IMVI melanoma): > 100 µM
- TGI (SF-268 CNS): > 100 µM
- TGI (DMS 114 small cell lung): > 100 µM
- TGI (RPMI-8226 leukemia): > 100 µM
- TGI (K-562 leukemia): > 100 µM
- TGI (EKVX NSCLC): > 100 µM
- TGI (NCI-H226 lung): > 100 µM
- TGI (XF 498 CNS): 90.2 µM
- TGI (NCI-H460 lung): > 100 µM
- TGI (U251 CNS): > 100 µM
- TGI (CCRF-CEM leukemia): > 100 µM
- TGI (HOP-62 NSCLC): > 100 µM
- TGI (UACC-257 melanoma): > 100 µM
- TGI (786-0 renal): > 100 µM
- TGI (MOLT-4 leukemia): > 100 µM
- TGI (MALME-3M melanoma): > 100 µM
- TGI (CAKI-1 renal): > 100 µM
- TGI (KM12 colon): > 100 µM
- TGI (HCT-116 colon): > 100 µM
- TGI (A549 NSCLC): > 100 µM
- TGI (HT29 colon): > 100 µM
- TGI (DMS 273 small cell lung): > 100 µM
- TGI (OVCAR-5 ovarian): > 100 µM
- TGI (HL-60(TB) leukemia): > 100 µM
